For one data set, the system named is MePR2B. The data set can be described thus: Cytotoxic effect on mesenchymal progenitor model MePR2B. Format: cell-based. Conditions: immortalized non-cancer cells.
A further data set deals with T1, CYP2D6 (Homo sapiens, UniProt P10635).
T1 construct: liver microsomes (0.5 mg/mL) and NADPH (1 mM) in; from tissue; host or cells: human liver microsomes
The data set can be described thus: Cytochrome P450 inhibition, CYP2D6. Conditions: human liver microsomes, probe dextromethorphan. Format: in vitro ADME. The method, then: (§1) This provided a dose of 2 mg free base material/kg when Cytochrome p450 inhibition (5 isoform iC50 administered iv in a 5 mL/kg dosing volume. determination) mouse terminal ip pK study ADME-Tox Cytochrome P450 inhibition of Compound MC2884 was given ip at a dose of 2 mg/kg MC2884 using human liver microsomes as an estimation to a group of 24 normally fed male CD1 mice in a 10 mL/ of in vitro metabolism. kg injection volume. Terminal blood samples (> 230 μL) MC2884 (0.1 μM–25 μM) was incubated with were taken under CO2 from groups of 3 mice at each of 8 human liver microsomes and NADPH in the presence time-points post dose (0.083, 0.25, 0.5, 1, 2, 4, 8 and 24 h) of a cytochrome P450 isoform-specific probe substrate. and placed into heparinized tubes. […]
(§2) All samples were stored at −20° C measuring the formation of a fluorescent metabolite. […]
(§3) Cyp2C19 inhibition (0.1 mg/mL) and NADPH (1 mM) in the presence of the probe substrate midazolam (2.5 μM) for 5 min at Six test compound samples at concentrations 37° C. […] For the CYP1A incubations, the reactions microsomes (0.5 mg/mL) and NADPH (1 mM) in the were terminated by methanol, and the formation of the presence of the probe substrate mephenytoin (25 μM) metabolite, resorufin, was monitored by fluorescence for 60 min at 37° C. […]
On the technique in general: Liver microsomes are vesicles of endoplasmic reticulum, rich in cytochrome P450 enzymes.

The subject of the next data set is HCT116 colon carcinoma. In words: Immunohistochemistry and TUNEL of HCT116 xenograft tumors. Format: in vivo, mice. Conditions: end of treatment, 10 mg/Kg. The method, then:
HCT116 cell line was grown in McCoy’s medium, supplemented with 10% inactivated FBS, 2 mM glutamine and standard concentration of antibiotics. 7- to 8-week-old male CD1 nude athymic mice were purchased from Charles River and under pathogen-free conditions in accordance with European Directives no. 2010/63 and with Italian D.L. 26/2014. Mice were injected subcutaneously into the right flank with 4 × 10^6 of HCT116 cells; tumor volume (mm^3) was evaluated three times a week by caliper using the formula Dmax x dmin^^2/2, where ‘d’ and ‘D’ are the shortest and the longest diameters, respectively. For all experiments, mice were randomly divided (n = 7) and intra-peritoneal injected by day five every day with: vehicle sesame oil/DMSO 6%; MC2884 10 mg/Kg in sesame oil/DMSO 6%. Mice were sacrificed after 20 days of drug treatment and tumors explanted for immunohistochemical analyses. For HCT116-DKO colon cancer, 6 × 10^6 cells were injected.
The biopsy specimens were fixed in 10% buffered-formalin and paraffin-embedded. Sections of […] were stained with haematoxylin-eosin, and haematoxylin-van Gieson. For immunohistochemistry, specimens were incubated in a microwave oven for 15 min in 10 mM buffered citrate pH 6.0 followed by the immunohistochemical procedure for Ki67 (Santa Cruz Biotechnology Inc., CA, USA), H3K27me3, H3K9/14ac (Diagenode). The conventional avidin-biotin complex procedure was applied according to manufacturer’s protocol (Dako Carpinteria, CA, USA) and incubated with secondary antibody. […] Slides were cover-slipped with a xylene-based mounting medium. Staining was scored as percentage of positive nuclei per high power field 10 × 40. Negative controls for each tissue section were performed omitting the primary antibody. Positive controls included in each experiment consisted of tissue previously shown to express the antigen of interest. TUNEL reaction was performed using the peroxidase-based Apoptag kit (Oncor, Gaithersburg, MD, US). TUNEL positive cells were detected with DAB and H2O2 according to the supplier’s instructions. The experiments were repeated on different sections for each specimen (two to four). For all immunohistochemical markers, 100 random fields (250×) per section were analysed (12.5 mm^2). Mann–Whitney and Wilcoxon tests were used to assess the relationship between ordinal data. Two-tailed P value was considered significant when ≤ 0.05. SPSS software (version 10.00, SPSS, Chicago, IL, USA) was used for statistical analysis.

In another data set the target is T2, CYP2C19 (Homo sapiens, UniProt P33261).
T2 construct: from tissue; host or cells: human liver microsomes
T2 sequence (P33261 whole entry): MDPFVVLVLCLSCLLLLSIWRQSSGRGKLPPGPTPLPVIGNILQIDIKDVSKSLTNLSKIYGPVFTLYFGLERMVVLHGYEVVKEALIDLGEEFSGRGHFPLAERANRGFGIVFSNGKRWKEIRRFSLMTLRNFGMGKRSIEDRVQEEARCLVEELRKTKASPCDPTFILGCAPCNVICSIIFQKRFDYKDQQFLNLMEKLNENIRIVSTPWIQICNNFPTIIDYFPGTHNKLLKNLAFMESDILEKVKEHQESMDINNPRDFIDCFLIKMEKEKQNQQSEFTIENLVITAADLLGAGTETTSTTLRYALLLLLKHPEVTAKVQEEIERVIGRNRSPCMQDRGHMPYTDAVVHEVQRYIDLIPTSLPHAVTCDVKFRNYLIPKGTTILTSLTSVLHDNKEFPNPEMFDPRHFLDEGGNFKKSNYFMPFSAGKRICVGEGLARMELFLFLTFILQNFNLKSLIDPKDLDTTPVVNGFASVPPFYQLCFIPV
The data set can be described thus: Cytochrome P450 inhibition, CYP2C19. The format is in vitro ADME. Conditions: human liver microsomes, probe mephenytoin. The method, then:
as §1, §2, §3

[1] abbreviates: scored as percentage of positive nuclei.

T1 sequence (P10635 whole entry): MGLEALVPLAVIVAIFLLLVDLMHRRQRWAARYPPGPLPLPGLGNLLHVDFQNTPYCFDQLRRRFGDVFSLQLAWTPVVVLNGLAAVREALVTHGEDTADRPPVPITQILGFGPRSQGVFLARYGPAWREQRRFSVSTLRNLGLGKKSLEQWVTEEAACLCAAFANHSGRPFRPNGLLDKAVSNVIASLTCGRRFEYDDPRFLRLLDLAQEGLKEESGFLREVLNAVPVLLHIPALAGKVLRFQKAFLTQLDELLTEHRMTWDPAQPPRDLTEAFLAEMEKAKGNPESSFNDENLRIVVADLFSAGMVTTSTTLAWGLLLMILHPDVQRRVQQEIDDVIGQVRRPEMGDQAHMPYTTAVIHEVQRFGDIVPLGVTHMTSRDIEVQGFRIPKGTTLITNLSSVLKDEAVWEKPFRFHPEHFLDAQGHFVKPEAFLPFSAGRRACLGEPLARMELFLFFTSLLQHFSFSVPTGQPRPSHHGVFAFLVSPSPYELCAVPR

Regarding `O=C1/C(=C/c2cccc(Br)c2)CN(Cc2ccccc2)C/C1=C\c1cccc(Br)c1` [MC2884], in the data set on MePR2B, the “cytotoxic effect on MePR2B” value is given as “insensitive”. Moreover, the IC50 on CYP2D6 was over 25 µM. Moreover, the “apoptotic index (TUNEL)” value with HCT116 colon carcinoma is listed as 35±4. Also, in the data set on HCT116 colon carcinoma (setting [1]), the “H3 K9/14ac” value is 5±0.2, the “H3 K27me3” value was 19±2 and the “proliferation index (Ki67)” value is listed as 6±0.5. Besides, the IC50 on CYP2C19 was over 25 µM.

As a reminder, the IC50 is the concentration at which inhibition is half-maximal. A lower IC50 goes with higher potency.

(Values after paper PMC5986654, “Combined HAT/EZH2 modulation leads to cancer-selective cell death” (Oncotarget, 2018).)
